{
  "source": "ChEMBL document CHEMBL1159132",
  "about": "“A small library of peptidomimetics to systematically vary and test the effects of X1 constraints” (Bioorg Med Chem Lett, 1996)",
  "note": "“And” between values parts separate entries of the source, which are not always exact repeats. Identical values can stand only once.",
  "data": [
    {"test": "Inhibition of radiolabeled neuropeptide FF binding to neuropeptide FF receptors in rat spinal cord", "parameters": "concentration or dose not given beside the values", "details": "concentration not given here", "values": [
      {"smiles": "CC(C)[C@@H]1C[C@]1(NC(=O)[C@H](Cc1ccccc1)NC(=O)[C@@H](C)NC(=O)CNC(=O)[C@@H](N)Cc1ccc(O)cc1)C(=O)N[C@@H](CCCN=C(N)N)C(=O)N[C@@H](Cc1ccccc1)C(N)=O", "inhibition": "29% [middle of 4 runs]"},
      {"smiles": "CC(C)C[C@H](NC(=O)[C@H](Cc1ccccc1)NC(=O)[C@@H](C)NC(=O)CNC(=O)[C@@H](N)Cc1ccc(O)cc1)C(=O)N[C@@H](CCCN=C(N)N)C(=O)N[C@@H](Cc1ccccc1)C(N)=O", "inhibition": "81% and 75%"},
      {"smiles": "CC(C)[C@H]1C[C@@]1(NC(=O)[C@H](Cc1ccccc1)NC(=O)[C@@H](C)NC(=O)CNC(=O)[C@@H](N)Cc1ccc(O)cc1)C(=O)N[C@@H](CCCN=C(N)N)C(=O)N[C@@H](Cc1ccccc1)C(N)=O", "inhibition": "22% and 34% and 43%"},
      {"smiles": "CC(C)C[C@@H](NC(=O)[C@H](Cc1ccccc1)NC(=O)CNC(=O)[C@H](C)NC(=O)[C@@H](N)Cc1ccc(O)cc1)C(=O)N[C@@H](CCCN=C(N)N)C(=O)N[C@@H](Cc1ccccc1)C(N)=O", "inhibition": "35% and 40%"},
      {"smiles": "CC(C)[C@@H]1C[C@]1(NC(=O)[C@H](Cc1ccccc1)NC(=O)[C@@H](C)NC(=O)[C@H](C)NC(=O)[C@@H](N)Cc1ccc(O)cc1)C(=O)N[C@@H](CCCN=C(N)N)C(=O)N[C@@H](Cc1ccccc1)C(N)=O", "inhibition": "30% [middle of 4 runs]"},
      {"smiles": "CC(C)C[C@H](NC(=O)[C@H](Cc1ccccc1)NC(=O)CNC(=O)CNC(=O)[C@@H](N)Cc1ccc(O)cc1)C(=O)N[C@@H](CCCN=C(N)N)C(=O)N[C@@H](Cc1ccccc1)C(N)=O", "inhibition": "98% and 84%"},
      {"smiles": "CC(C)C[C@H](NC(=O)[C@H](Cc1ccccc1)NC(=O)CNC(=O)[C@H](C)NC(=O)[C@@H](N)Cc1ccc(O)cc1)C(=O)N[C@@H](CCCN=C(N)N)C(=O)N[C@@H](Cc1ccccc1)C(N)=O", "inhibition": "60% and 76%"},
      {"smiles": "CC(C)C[C@@H](NC(=O)[C@H](Cc1ccccc1)NC(=O)[C@@H](C)NC(=O)[C@H](C)NC(=O)[C@@H](N)Cc1ccc(O)cc1)C(=O)N[C@@H](CCCN=C(N)N)C(=O)N[C@@H](Cc1ccccc1)C(N)=O", "inhibition": "69% and 63%"},
      {"smiles": "CC(C)[C@H]1CC1(NC(=O)[C@H](Cc1ccccc1)NC(=O)[C@@H](C)NC(=O)[C@H](C)NC(=O)[C@@H](N)Cc1ccc(O)cc1)C(=O)N[C@@H](CCCN=C(N)N)C(=O)N[C@@H](Cc1ccccc1)C(N)=O", "note": "(single isomer, unassigned; form 2)", "inhibition": "27%"},
      {"smiles": "CC(C)C[C@H](NC(=O)[C@H](Cc1ccccc1)NC(=O)[C@@H](C)NC(=O)[C@H](C)NC(=O)[C@@H](N)Cc1ccc(O)cc1)C(=O)N[C@@H](CCCN=C(N)N)C(=O)N[C@@H](Cc1ccccc1)C(N)=O", "inhibition": "58% and 65%"},
      {"smiles": "CC(C)[C@H]1C[C@@]1(NC(=O)[C@H](Cc1ccccc1)NC(=O)[C@@H](C)NC(=O)[C@H](C)NC(=O)[C@@H](N)Cc1ccc(O)cc1)C(=O)N[C@@H](CCCN=C(N)N)C(=O)N[C@@H](Cc1ccccc1)C(N)=O", "inhibition": "32% and 35%"},
      {"smiles": "CC(C)C[C@@H](NC(=O)[C@H](Cc1ccccc1)NC(=O)[C@@H](C)NC(=O)CNC(=O)[C@@H](N)Cc1ccc(O)cc1)C(=O)N[C@@H](CCCN=C(N)N)C(=O)N[C@@H](Cc1ccccc1)C(N)=O", "inhibition": "28% and 48%"},
      {"smiles": "CC(C)[C@H]1CC1(NC(=O)[C@H](Cc1ccccc1)NC(=O)[C@@H](C)NC(=O)[C@H](C)NC(=O)[C@@H](N)Cc1ccc(O)cc1)C(=O)N[C@@H](CCCN=C(N)N)C(=O)N[C@@H](Cc1ccccc1)C(N)=O", "note": "(single isomer, unassigned; form 1)", "inhibition": "32%"},
      {"smiles": "CC(C)[C@H]1CC1(NC(=O)[C@H](Cc1ccccc1)NC(=O)CNC(=O)CNC(=O)[C@@H](N)Cc1ccc(O)cc1)C(=O)N[C@@H](CCCN=C(N)N)C(=O)N[C@@H](Cc1ccccc1)C(N)=O", "note": "(single isomer, unassigned)", "inhibition": "57%"},
      {"smiles": "CC(C)[C@H]1CC1(NC(=O)[C@H](Cc1ccccc1)NC(=O)[C@@H](C)NC(=O)CNC(=O)[C@@H](N)Cc1ccc(O)cc1)C(=O)N[C@@H](CCCN=C(N)N)C(=O)N[C@@H](Cc1ccccc1)C(N)=O", "note": "(single isomer, unassigned)", "inhibition": "27%"},
      {"smiles": "CC(C)C[C@@H](NC(=O)[C@H](Cc1ccccc1)NC(=O)CNC(=O)CNC(=O)[C@@H](N)Cc1ccc(O)cc1)C(=O)N[C@@H](CCCN=C(N)N)C(=O)N[C@@H](Cc1ccccc1)C(N)=O", "inhibition": "48% and 31%"}
    ]}
  ]
}
